One assay relates to A10. In words: Induction of microtubule depolymerization in rat A10 cells after 18 hrs by indirect immunofluorescence method. It is filed as functional, cell-based. The conditions noted are these: A10, 18 h.
The target in assay [1] is Platelet-derived growth factor receptor beta (Homo sapiens, UniProt P09619). In words: Inhibition of PDGF-BB-induced PDGFRbeta activation in human SH-SY5Y cells pretreated for 60 mins followed by PDGF-BB addition and measured after 10 mins by ELISA. It is filed as cell-based. For orientation: ELISA stands for enzyme-linked immunosorbent assay.
Assay [2] concerns the target Vascular endothelial growth factor receptor 2 (Homo sapiens, UniProt P35968). It is filed as cell-based.
Assay [3] has as its target Epidermal growth factor receptor (Homo sapiens, UniProt P00533). It is filed as cell-based.
The nature of assay [4]: Antiproliferative activity against human wild-type Hela-beta3 cells after 72 hrs by sulforhodamine B assay. Type of assay: functional.
For another assay, the system named is SK-OV-3. Nature of the assay: Antiproliferative activity against human SKOV3 cells after 72 hrs by sulforhodamine B assay. Type of assay: functional, cell-based. The note with it: SK-OV-3, 72 h. Background: In SRB staining, fixed cells bind dye roughly in proportion to their protein.
The subject of assay [5] is Chorioallantoic membrane. In words: Antiangiogenic activity in Leghorn chicken embryo chorioallantoic membrane after 40 hrs by microscopic analysis. It is filed as functional, tissue-based. The conditions noted are these: Gallus gallus.
The test system of a further assay is A-431. Nature of the assay: Cytotoxicity against human A431 cells over-expressing EGFR. It is filed as functional, cell-based.
A further assay concerns MDA-MB-435. Nature of the assay: Antiproliferative activity against human MDA-MB-435 cells after 72 hrs by sulforhodamine B assay. Type of assay: functional, cell-based. The conditions noted are these: MDA-MB-435, 72 h.
The test system of another assay is HeLa. In words: Antiproliferative activity against human HeLa cells after 72 hrs by sulforhodamine B assay. It is filed as functional, cell-based.
Assay [6] is described as follows: Resistance index, ratio of IC50 for human HeLa cells to IC50 for human wild-type Hela-beta3 cells. Type of assay: functional.
A short description of assay [7]: Resistance index, ratio of IC50 for human SKOV3-MDR1-M6/6 cells to IC50 for human SKOV3 cells. It is filed as functional.
A short description of assay [8]: Antiproliferative activity against human SKOV3-MDR1-M6/6 cells after 72 hrs by sulforhodamine B assay. It is filed as functional. The note with it: SKOV3-MDR1-M6/6, 72 h.
Assay [9] deals with Chorioallantoic membrane. In words: Potency index, ratio of sunitinib IC50 to test compound IC50 for antiangiogenic activity in Leghorn chicken embryo chorioallantoic membrane. Type of assay: functional, tissue-based. The conditions noted are these: Gallus gallus.

The values that follow come from ChEMBL document CHEMBL4229524, “Design, synthesis and preclinical evaluation of 5-methyl-N4-aryl-furo[2,3-d]pyrimidines as single agents with combination chemotherapy potential” (Bioorg Med Chem Lett, 2018).

One may read the EC50 as the concentration needed to bring the measured effect to its halfway point. A high value points to lower potency in that assay. The term IC50 denotes the point on the concentration scale where inhibition reaches its midpoint.

Molecules are shown by their SMILES. Where only a bound is given, the exact number is not on record here.

Chain of Platelet-derived growth factor receptor beta (P09619 whole entry): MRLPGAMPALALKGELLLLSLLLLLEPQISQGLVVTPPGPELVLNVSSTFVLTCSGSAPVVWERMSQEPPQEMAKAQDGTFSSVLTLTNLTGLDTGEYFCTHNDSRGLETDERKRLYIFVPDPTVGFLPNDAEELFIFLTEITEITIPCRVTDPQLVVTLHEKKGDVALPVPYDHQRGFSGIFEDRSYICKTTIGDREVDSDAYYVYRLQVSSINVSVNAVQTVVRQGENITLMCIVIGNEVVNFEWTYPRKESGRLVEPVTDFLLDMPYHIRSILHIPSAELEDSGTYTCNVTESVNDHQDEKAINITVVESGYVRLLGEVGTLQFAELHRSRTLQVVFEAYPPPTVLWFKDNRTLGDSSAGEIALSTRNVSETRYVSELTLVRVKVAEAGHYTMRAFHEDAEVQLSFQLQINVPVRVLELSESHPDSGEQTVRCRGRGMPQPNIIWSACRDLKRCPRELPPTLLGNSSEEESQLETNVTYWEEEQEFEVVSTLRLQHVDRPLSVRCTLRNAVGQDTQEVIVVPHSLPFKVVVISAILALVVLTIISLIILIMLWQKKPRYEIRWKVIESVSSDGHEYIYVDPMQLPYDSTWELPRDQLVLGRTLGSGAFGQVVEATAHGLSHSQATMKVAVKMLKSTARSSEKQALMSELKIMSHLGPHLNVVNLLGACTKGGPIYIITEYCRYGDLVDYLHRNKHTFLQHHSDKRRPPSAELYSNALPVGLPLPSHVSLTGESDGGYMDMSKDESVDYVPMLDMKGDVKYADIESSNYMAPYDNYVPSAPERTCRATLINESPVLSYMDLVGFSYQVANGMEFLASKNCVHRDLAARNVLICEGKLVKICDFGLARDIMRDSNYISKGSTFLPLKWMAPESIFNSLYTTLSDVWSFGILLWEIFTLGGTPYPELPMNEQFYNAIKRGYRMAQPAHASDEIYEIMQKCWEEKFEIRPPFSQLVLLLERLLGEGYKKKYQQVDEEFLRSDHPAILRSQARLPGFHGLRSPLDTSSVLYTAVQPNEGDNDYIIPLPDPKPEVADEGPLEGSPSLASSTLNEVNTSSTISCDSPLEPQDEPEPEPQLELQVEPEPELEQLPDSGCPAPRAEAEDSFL
Chain of Vascular endothelial growth factor receptor 2 (P35968 whole entry): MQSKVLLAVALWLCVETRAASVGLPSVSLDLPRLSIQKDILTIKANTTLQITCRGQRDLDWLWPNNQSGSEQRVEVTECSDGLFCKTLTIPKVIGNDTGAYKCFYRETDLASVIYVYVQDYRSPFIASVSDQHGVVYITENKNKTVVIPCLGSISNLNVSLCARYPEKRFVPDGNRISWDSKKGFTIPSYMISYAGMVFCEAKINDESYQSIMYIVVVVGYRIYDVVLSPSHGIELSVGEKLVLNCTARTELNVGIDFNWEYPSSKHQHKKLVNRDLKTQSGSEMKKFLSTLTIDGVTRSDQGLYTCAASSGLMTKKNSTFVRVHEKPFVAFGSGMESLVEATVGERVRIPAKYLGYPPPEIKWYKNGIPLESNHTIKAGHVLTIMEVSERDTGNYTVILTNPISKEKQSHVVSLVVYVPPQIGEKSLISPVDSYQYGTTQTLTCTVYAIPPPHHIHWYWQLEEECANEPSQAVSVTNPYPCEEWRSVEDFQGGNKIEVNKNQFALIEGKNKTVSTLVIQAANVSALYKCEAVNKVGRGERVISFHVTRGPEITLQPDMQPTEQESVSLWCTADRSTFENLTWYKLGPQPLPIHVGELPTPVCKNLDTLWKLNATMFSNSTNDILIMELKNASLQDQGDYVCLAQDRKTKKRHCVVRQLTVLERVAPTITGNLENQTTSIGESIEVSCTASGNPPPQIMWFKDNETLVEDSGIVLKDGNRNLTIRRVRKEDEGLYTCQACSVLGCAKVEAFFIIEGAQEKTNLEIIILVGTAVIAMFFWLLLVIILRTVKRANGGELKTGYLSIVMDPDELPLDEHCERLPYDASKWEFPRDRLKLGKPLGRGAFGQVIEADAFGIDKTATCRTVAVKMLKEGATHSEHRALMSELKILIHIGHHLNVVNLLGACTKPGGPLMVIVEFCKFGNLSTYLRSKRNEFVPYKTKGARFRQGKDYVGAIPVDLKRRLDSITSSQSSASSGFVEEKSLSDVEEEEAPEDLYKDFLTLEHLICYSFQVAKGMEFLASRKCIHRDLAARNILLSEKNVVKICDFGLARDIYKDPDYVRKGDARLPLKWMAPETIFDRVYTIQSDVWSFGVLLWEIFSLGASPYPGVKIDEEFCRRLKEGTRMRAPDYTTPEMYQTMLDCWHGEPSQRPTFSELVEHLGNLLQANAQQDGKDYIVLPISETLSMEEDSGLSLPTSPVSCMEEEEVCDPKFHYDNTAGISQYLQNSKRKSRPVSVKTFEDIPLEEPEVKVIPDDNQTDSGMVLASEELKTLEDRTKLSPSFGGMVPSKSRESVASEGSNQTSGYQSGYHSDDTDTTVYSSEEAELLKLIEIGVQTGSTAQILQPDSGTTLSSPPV
Chain of Epidermal growth factor receptor (P00533 whole entry): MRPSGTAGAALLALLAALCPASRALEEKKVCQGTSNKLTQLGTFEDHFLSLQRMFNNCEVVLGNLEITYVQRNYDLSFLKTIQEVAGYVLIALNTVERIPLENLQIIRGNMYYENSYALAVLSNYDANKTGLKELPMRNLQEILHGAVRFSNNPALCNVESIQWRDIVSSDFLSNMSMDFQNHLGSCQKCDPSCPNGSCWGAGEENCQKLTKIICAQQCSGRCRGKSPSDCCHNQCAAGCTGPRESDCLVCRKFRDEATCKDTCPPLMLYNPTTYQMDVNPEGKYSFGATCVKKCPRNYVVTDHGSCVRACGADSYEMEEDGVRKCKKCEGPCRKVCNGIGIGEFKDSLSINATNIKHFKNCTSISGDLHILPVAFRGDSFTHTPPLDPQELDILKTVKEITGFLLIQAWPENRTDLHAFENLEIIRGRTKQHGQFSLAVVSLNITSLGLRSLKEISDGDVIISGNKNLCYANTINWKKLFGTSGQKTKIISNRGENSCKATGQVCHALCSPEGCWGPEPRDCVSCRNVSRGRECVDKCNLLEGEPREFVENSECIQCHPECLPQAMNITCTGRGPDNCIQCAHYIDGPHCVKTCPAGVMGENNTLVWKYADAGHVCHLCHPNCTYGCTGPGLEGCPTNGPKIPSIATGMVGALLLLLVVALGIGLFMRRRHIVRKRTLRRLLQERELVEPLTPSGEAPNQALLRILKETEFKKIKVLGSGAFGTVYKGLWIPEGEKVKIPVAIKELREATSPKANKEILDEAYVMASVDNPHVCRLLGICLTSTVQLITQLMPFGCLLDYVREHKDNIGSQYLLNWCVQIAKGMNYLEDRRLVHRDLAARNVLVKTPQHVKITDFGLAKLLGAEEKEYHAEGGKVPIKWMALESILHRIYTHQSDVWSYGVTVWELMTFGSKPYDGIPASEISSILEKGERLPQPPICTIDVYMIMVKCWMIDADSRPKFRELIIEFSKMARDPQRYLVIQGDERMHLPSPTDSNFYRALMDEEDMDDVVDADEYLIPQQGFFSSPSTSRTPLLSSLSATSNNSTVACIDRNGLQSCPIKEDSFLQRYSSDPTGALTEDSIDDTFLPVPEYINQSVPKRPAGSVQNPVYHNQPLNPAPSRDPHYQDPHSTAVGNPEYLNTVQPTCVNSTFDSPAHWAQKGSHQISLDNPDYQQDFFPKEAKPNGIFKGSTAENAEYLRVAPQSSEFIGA

In turn, `Cc1coc2ncnc(Nc3ccc([N+](=O)[O-])cc3)c12` displayed an EC50 with A10 greater than 10000 nM. Further, the IC50 in assay [1], in [2] and in [3] was greater than 200 nM in each case.
With `CC(=O)O[C@H]1C(=O)[C@@]2(C)[C@H]([C@H](OC(=O)c3ccccc3)[C@]3(O)C[C@H](OC(=O)[C@H](O)[C@@H](NC(=O)c4ccccc4)c4ccccc4)C(C)=C1C3(C)C)[C@]1(OC(C)=O)CO[C@@H]1C[C@@H]2O` [PACLITAXEL], the IC50 in assay [4] stood at 24 nM; in the assay with SK-OV-3 it was 5 nM.
For the compound `COc1ccc(N(c2ncnc3occ(C)c23)C(C)C)cc1`, the IC50 is 480 nM in the assay with Chorioallantoic membrane [5]; 4.8 nM in the assay with A-431; 42.6 nM in assay [1]; 23.4 nM in assay [2]; 10.1 nM in [3].
`CNc1ccc(N(C)c2ncnc3occ(C)c23)cc1`: the IC50 in assay [4] was determined as 86 nM; with MDA-MB-435, 74 nM; in the assay on HeLa, 74 nM; in the assay with Chorioallantoic membrane [5], 707 nM; in the assay with A-431, 2.9 nM; in assay [1] it was 57.8 nM. For the same compound, the IC50 turned out to be 95 nM in the assay on SK-OV-3, 12.7 nM in [2], 101 nM in assay [8] and 6.4 nM in assay [3]. The compound also had an EC50 with A10 of 240 nM. Moreover, the “Ratio IC50” value was found to be 1.2 in [6] and 1.1 in [7].
For the compound `CSc1ccc(N(C)c2ncnc3occ(C)c23)cc1`, the IC50 with Chorioallantoic membrane [5] turned out to be 520 nM; in the assay with A-431, 2.9 nM; in assay [1], 62.2 nM; in assay [2], 13.6 nM; in assay [3], 7.2 nM.
`Cc1coc2ncnc(N(C)c3ccc([N+](=O)[O-])cc3)c12` came in with an EC50 with A10 greater than 10000 nM. Also, the IC50 is 1060 nM in the assay on Chorioallantoic membrane [5]; 433 nM in the assay on A-431; greater than 200 nM in assay [1]; greater than 200 nM in [2]; greater than 200 nM in [3].
For the compound `Cc1coc2ncnc(Nc3ccc(N(C)C)cc3)c12`, the EC50 in the assay with A10 is greater than 10000 nM. Besides, the IC50 in assay [1], in assay [2] and in assay [3] was greater than 200 nM in each case.
As to `COc1ccc(Nc2ncnc3occ(C)c23)cc1`, the IC50 came to 445 nM with Chorioallantoic membrane [5]; 292 nM in the assay on A-431; 57.3 nM in assay [1]; 38.1 nM in assay [2]; 283 nM in assay [3].
In the case of `CCCN(c1ccc(OC)cc1)c1ncnc2occ(C)c12`, the IC50 was 301 nM in the assay with Chorioallantoic membrane [5]; 2.3 nM with A-431; 38.9 nM in [1]; 12 nM in [2]; 7.1 nM in assay [3]. For the same compound, in the assay with Chorioallantoic membrane [9], the Ratio IC50 was 4.
In the case of `COc1ccc(/C=C\c2cc(OC)c(OC)c(OC)c2)cc1O` [COMBRETASTATIN A4], in the assay on A10, the EC50 came to 9.8 nM.
Turning to `CCc1ccc(N(C)c2ncnc3occ(C)c23)cc1`, the IC50 was 287 nM with Chorioallantoic membrane [5]; 1.4 nM in the assay on A-431; 28.9 nM in [1]; 7.8 nM in [2]; 4 nM in [3]. Moreover, the Ratio IC50 in the assay on Chorioallantoic membrane [9] was found to be 4.
On to `CCN(c1ccc(OC)cc1)c1ncnc2occ(C)c12`, for which the IC50 in the assay with Chorioallantoic membrane [5] stood at 812 nM; with A-431 it was 3.4 nM; in assay [1], 51.4 nM; in assay [2], 67.3 nM; in [3], 92.5 nM.
The compound `CNc1ccc(Nc2ncnc3occ(C)c23)cc1` had an EC50 in the assay on A10 greater than 10000 nM. Further, the IC50 in assay [1], in assay [2] and in assay [3] was greater than 200 nM in each case.
